Laboratory results published in US8952024B2, “Herbicidal pyrimidone derivatives” (E I du Pont de Nemours and Company, priority 2009, dated 2015).

Assays:
Type in all cases: in vivo
[1] = system: winter barley (Hordeum vulgare); assay: Test B postemergence plant response; conditions: for Barley plant response rating (0 to 100 scale): 62 g ai/ha, postemergence, 0 is no effect, 100 is complete control; for Plant response rating, Barley: Postemergence
How it was run: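 Visual ratings from 0 (no effect) to 100 (complete control), made against controls 13–15 days after treatment, kept in a greenhouse. Compounds were applied postemergence to potted plants at the 1- to 4-leaf stage (2–18 cm).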

[2] = system: rice (Oryza sativa); assay: Test B flooded paddy test; conditions: for Plant response rating, Flood, Rice: 250 g ai/ha, flooded paddy test, visual rating on 0 to 100 scale (0 no effect, 100 complete control) after 13 to 15 days; for Plant response rating, Rice: Flood (flooded paddy test), 13 to 15 days; for Rice plant response rating: Flood, 31 g ai/ha, scale 0 to 100 (0 no effect, 100 complete control)
How it was run: (§1)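 Flooded-pot test: water raised to 3 cm above soil when treating, compound put in the water, level unchanged thereafter. Plants were at 2 leaves. Readout after 13 to 15 days, visual, relative to controls; 0 signifies no effect and 100 complete control.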

[3] = system: umbrella sedge (Cyperus difformis); assay: Test B flooded paddy test; conditions: for Plant response rating, Flood, Sedge, Umbrella: 250 g ai/ha, flooded paddy test, visual rating on 0 to 100 scale (0 no effect, 100 complete control) after 13 to 15 days; for Plant response rating, Sedge, Umbrella: Flood (flooded paddy test), 13 to 15 days; for Sedge, Umbrella plant response rating: Flood, 31 g ai/ha, scale 0 to 100 (0 no effect, 100 complete control)
How it was run: as §1

[4] = system: barnyardgrass (Echinochloa crus-galli); assay: Test B flooded paddy test; conditions: for Plant response rating, Flood, Barnyardgrass: 250 g ai/ha, flooded paddy test, visual rating on 0 to 100 scale (0 no effect, 100 complete control) after 13 to 15 days; for Plant response rating, Barnyardgrass: Flood (flooded paddy test), 13 to 15 days; for Barnyardgrass plant response rating: Flood, 31 g ai/ha, scale 0 to 100 (0 no effect, 100 complete control)
How it was run: as §1

[5] = system: ducksalad (Heteranthera limosa); assay: Test B flooded paddy test; conditions: for Plant response rating, Flood, Ducksalad: 250 g ai/ha, flooded paddy test, visual rating on 0 to 100 scale (0 no effect, 100 complete control) after 13 to 15 days; for Plant response rating, Ducksalad: Flood (flooded paddy test), 13 to 15 days; for Ducksalad plant response rating: Flood, 31 g ai/ha, scale 0 to 100 (0 no effect, 100 complete control)
How it was run: as §1

[6] = system: wheat (Triticum aestivum); assay: Test A pre-/postemergence plant response
How it was run: (§2)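 Pre: directed soil spray on seeded loam/sand blend. Post: same formulation (non-phytotoxic solvent + surfactant) on 2–10 cm plants, 1–2 leaf stage. Greenhouse ~10 d; visual injury score 0–100 vs untreated.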

[7] = system: large crabgrass (Digitaria sanguinalis); assay: Test A pre-/postemergence plant response
How it was run: as §2

[8] = system: velvetleaf (Abutilon theophrasti); assay: Test A pre-/postemergence plant response
How it was run: as §2

[9] = system: giant foxtail (Setaria faberii); assay: Test A pre-/postemergence plant response
How it was run: as §2

[10] = system: corn (Zea mays); assay: Test A pre-/postemergence plant response
How it was run: as §2

[11] = system: morningglory (Ipomoea spp.); assay: Test A pre-/postemergence plant response
How it was run: as §2

[12] = system: barnyardgrass (Echinochloa crus-galli); assay: Test A pre-/postemergence plant response
How it was run: as §2

[13] = system: pigweed (Amaranthus retroflexus); assay: Test A pre-/postemergence plant response
How it was run: as §2

[14] = 31 g ai/ha, 0 to 100 scale (0 no effect, 100 complete control)
[15] = 125 g ai/ha, scale 0 to 100 (0 no effect, 100 complete control)
[16] = 250 g ai/ha, scale 0 to 100 (0 no effect, 100 complete control), 13 to 15 days
[17] = 62 g ai/ha, scale of 0 to 100 where 0 is no effect and 100 is complete control
[18] = 125 g ai/ha, scale 0 to 100, 0 is no effect, 100 is complete control
[19] = Postemergence, 125 g ai/ha, 0 to 100 scale where 0 is no effect and 100 is complete control
[20] = Postemergence, 500 g ai/ha, 0 to 100 scale, 0 = no effect, 100 = complete control, approx. ten days
[21] = Preemergence, 125 g ai/ha, 0 to 100 scale, 0 = no effect, 100 = complete control
[22] = Preemergence, 500 g ai/ha, 0 to 100 scale, 0 = no effect, 100 = complete control
[23] = Preemergence, 500 g ai/ha, visual injury, 0 to 100 scale (0 no effect, 100 complete control), approx. ten days

CCCCn1c(-c2cccc(Cl)c2)ncc(C(=O)C2=C(O)CCCC2=O)c1=O [Compound 146]
Barley plant response rating (0 to 100 scale) ([1]; 13 to 15 days): 0
Plant response rating, Barley [1, 14]: 0
Plant response rating, Barley [1, 15]: 15
Plant response rating, Barley [1, 16]: 30
Plant response rating, Flood, Rice [2]: 35
Plant response rating, Rice [2, 17]: 0
Plant response rating, Rice [2, 18]: 0
Rice plant response rating [2]: 0
Plant response rating, Flood, Sedge, Umbrella [3]: 90
Plant response rating, Sedge, Umbrella [3, 17]: 50
Plant response rating, Sedge, Umbrella [3, 18]: 80
Sedge, Umbrella plant response rating [3]: 0
Plant response rating, Flood, Barnyardgrass [4]: 30
Plant response rating, Barnyardgrass [4, 17]: 0
Plant response rating, Barnyardgrass [4, 18]: 0
Barnyardgrass plant response rating [4]: 0
Plant response rating, Flood, Ducksalad [5]: 100
Plant response rating, Ducksalad [5, 17]: 60
Plant response rating, Ducksalad [5, 18]: 80
Ducksalad plant response rating [5]: 0
Plant response rating, Wheat [6, 19]: 20
Plant response rating, Wheat [6, 20]: 50
Plant response rating, Wheat [6, 21]: 0
Plant response rating, Wheat [6, 22]: 40
Plant response rating, Crabgrass, Large [7, 19]: 80
Plant response rating, Crabgrass, Large [7, 20]: 90
Plant response rating, Crabgrass, Large [7, 21]: 60
Plant response rating, Crabgrass, Large [7, 23]: 100
Plant response rating, Velvetleaf [8, 19]: 100
Plant response rating, Velvetleaf [8, 20]: 100
Plant response rating, Velvetleaf [8, 21]: 70
Plant response rating, Velvetleaf [8, 22]: 100
Plant response rating, Foxtail, Giant [9, 19]: 70
Plant response rating, Foxtail, Giant [9, 20]: 90
Plant response rating, Foxtail, Giant [9, 21]: 30
Plant response rating, Foxtail, Giant [9, 23]: 90
Plant response rating, Corn [10, 19]: 20
Plant response rating, Corn [10, 20]: 30
Plant response rating, Corn [10, 21]: 0
Plant response rating, Corn [10, 23]: 30
Plant response rating, Morningglory [11, 19]: 90
Plant response rating, Morningglory [11, 20]: 90
Plant response rating, Morningglory [11, 21]: 10
Plant response rating, Barnyardgrass [12, 19]: 100
Plant response rating, Barnyardgrass [12, 20]: 100
Plant response rating, Barnyardgrass [12, 21]: 60
Plant response rating, Barnyardgrass [12, 23]: 100
Plant response rating, Pigweed [13, 19]: 100
Plant response rating, Pigweed [13, 20]: 100
Plant response rating, Pigweed [13, 21]: 70
Plant response rating, Pigweed [13, 23]: 100

COCCn1c(-c2cccc(Cl)c2)ncc(C(=O)C2=C(O)CCCC2=O)c1=O [Compound 147]
Barley plant response rating (0 to 100 scale) ([1]; 13 to 15 days): 0
Plant response rating, Barley [1, 14]: 0
Plant response rating, Barley [1, 15]: 0
Plant response rating, Barley [1, 16]: 0
Plant response rating, Flood, Rice [2]: 15
Plant response rating, Rice [2, 17]: 0
Plant response rating, Rice [2, 18]: 10
Rice plant response rating [2]: 0
Plant response rating, Flood, Sedge, Umbrella [3]: 80
Plant response rating, Sedge, Umbrella [3, 17]: 40
Plant response rating, Sedge, Umbrella [3, 18]: 40
Sedge, Umbrella plant response rating [3]: 0
Plant response rating, Flood, Barnyardgrass [4]: 75
Plant response rating, Barnyardgrass [4, 17]: 10
Plant response rating, Barnyardgrass [4, 18]: 45
Barnyardgrass plant response rating [4]: 0
Plant response rating, Flood, Ducksalad [5]: 100
Plant response rating, Ducksalad [5, 17]: 60
Plant response rating, Ducksalad [5, 18]: 80
Ducksalad plant response rating [5]: 60
Plant response rating, Wheat [6, 19]: 20
Plant response rating, Wheat [6, 20]: 60
Plant response rating, Wheat [6, 21]: 0
Plant response rating, Wheat [6, 22]: 20
Plant response rating, Crabgrass, Large [7, 19]: 80
Plant response rating, Crabgrass, Large [7, 20]: 90
Plant response rating, Crabgrass, Large [7, 21]: 100
Plant response rating, Crabgrass, Large [7, 23]: 100
Plant response rating, Velvetleaf [8, 19]: 100
Plant response rating, Velvetleaf [8, 20]: 100
Plant response rating, Velvetleaf [8, 21]: 80
Plant response rating, Velvetleaf [8, 22]: 100
Plant response rating, Foxtail, Giant [9, 19]: 70
Plant response rating, Foxtail, Giant [9, 20]: 80
Plant response rating, Foxtail, Giant [9, 21]: 70
Plant response rating, Foxtail, Giant [9, 23]: 90
Plant response rating, Corn [10, 19]: 20
Plant response rating, Corn [10, 20]: 30
Plant response rating, Corn [10, 21]: 0
Plant response rating, Corn [10, 23]: 0
Plant response rating, Morningglory [11, 19]: 100
Plant response rating, Morningglory [11, 20]: 100
Plant response rating, Morningglory [11, 21]: 40
Plant response rating, Morningglory [11, 23]: 90
Plant response rating, Barnyardgrass [12, 19]: 80
Plant response rating, Barnyardgrass [12, 20]: 90
Plant response rating, Barnyardgrass [12, 21]: 70
Plant response rating, Barnyardgrass [12, 23]: 100
Plant response rating, Pigweed [13, 19]: 100
Plant response rating, Pigweed [13, 20]: 100
Plant response rating, Pigweed [13, 21]: 90
Plant response rating, Pigweed [13, 23]: 100
